Experimental findings from ChEMBL document CHEMBL1123001, “Ibotenic acid analogues. Synthesis, molecular flexibility, and in vitro activity of agonists and antagonists at central glutamic acid receptors” (J Med Chem, 1985) are described below.

Experiment [1] can be described thus: NMDA Antagonist activity was evaluated; na means no activity. The format is functional.
The species named for experiment [2] is Rattus norvegicus. In words: Inhibition of [3H]AMPA binding in rat brain membrane was evaluated. The format is functional.
The nature of experiment [3]: NMDA Antagonist activity was evaluated; na means no activity; na means no activity. The experiment is classed as functional.
The species named for experiment [4] is Rattus norvegicus. The experiment can be described thus: GDEE-sensitive neuronal excitant (Relative potency) was evaluated; +++. The experiment is classed as functional, organism-based.
Experiment [5] is described as follows: Antagonist activity was evaluated by NMDA-induced excitations of feline spinal neuron; activity is seen. The format is functional. The following applies: filed as antagonist.
Experiment [6] is described as follows: Antagonist activity was evaluated by NMDA-induced excitations of feline spinal neuron; no activity. The format is functional.

The source made the active and inactive calls. The calls are words filed in the database; no cut-off is given here. A value given as a limit tells only on which side of the number the result lay.

One may read the IC50 as the concentration that gives 50% inhibition. `Cc1onc(O)c1C[C@H](N)C(=O)O` [(S)-AMPA]: in experiment [1], the Antagonist activity entry was “inactive”. This molecule showed a half-maximal inhibitory concentration (IC50) in the experiment filed under Rattus norvegicus [2] of 0.6 µM.

On to `N[C@@H](CCC(=O)O)C(=O)O` [GLUTAMIC ACID], for which, in experiment [1], the Antagonist activity result was “inactive”. In addition, in the experiment listed under Rattus norvegicus [2], the IC50 is 1.3 µM.

Regarding `Cc1onc(O)c1CC(N)C(=O)O` (racemic) [(R,S)-AMPA], the Antagonist activity result in experiment [3] was “inactive”. For the same molecule, the Relative potency entry in the experiment filed under Rattus norvegicus [4] is “Active”. Also, the IC50 in the experiment filed under Rattus norvegicus [2] stood at 0.8 µM.

`NC(CCc1cc(O)no1)C(=O)O` (centres undefined): the Antagonist activity entry in experiment [5] was “Antagonist”. The 50% inhibitory concentration (IC50) in the experiment listed under Rattus norvegicus [2] was 64 µM.

On to `NC(CCCc1cc(O)no1)C(=O)O` (centres undefined), for which the Antagonist activity entry in experiment [5] is “Antagonist”. The IC50 in the experiment filed under Rattus norvegicus [2] is above 100 µM.

In the case of `Cc1onc(O)c1C[C@@H](N)C(=O)O`, in experiment [1], the Antagonist activity entry was “inactive”. In addition, the IC50 in the experiment filed under Rattus norvegicus [2] worked out at 4.8 µM.

For `Cc1c(O)noc1C(C)C(N)C(=O)O` (centres undefined), the Antagonist activity entry in experiment [1] was “inactive”. The molecule further displayed a 50% inhibitory concentration (IC50) in the experiment listed under Rattus norvegicus [2] above 100 µM.

In the case of `CC(C)(C)c1onc(O)c1CC(N)C(=O)O` (centres undefined), the Antagonist activity entry in experiment [6] was “inactive”. This molecule came in with a half-inhibitory concentration (IC50) in the experiment filed under Rattus norvegicus [2] of 10.6 µM.

For the molecule `NC(Cc1c(O)noc1CBr)C(=O)O` (centres undefined), in experiment [1], the Antagonist activity entry is “inactive”. In addition, in the experiment filed under Rattus norvegicus [2], the IC50 stood at 0.6 µM.
